We go through 27 compounds from patent US10882837B2, “Amide compounds and use thereof” (ALPHALA CO., LTD., priority 2017, dated 2021).

By IC50 is commonly meant the midpoint of a concentration-inhibition curve. A lower IC50 goes with inhibition by little substance.

One assay addresses GCGR (Homo sapiens, UniProt P47871). Put plainly: I125-glucagon binding assay (competition, GCGR membrane fractions). On the set-up: expressed in transfected cells; host or cells: CHO-K1. The following applies: competition with I125-glucagon 0.0625 nM; membrane fractions from GCGR overexpressed CHO-K1 cells. The method in brief: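 Membranes from CHO-K1 cells overexpressing GCGR (7.5 µg/well) were preincubated 5 min with serially diluted compound in 50 mM Tris pH 7.4, 0.5% BSA. I125-glucagon was then added at 0.0625 nM final and incubated 30 min at 25 °C. After filtration, bound radioactivity was counted and IC50 derived by non-linear regression.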

The target in a further assay is T1, glucagon receptor (GCGR) (Homo sapiens, UniProt P47871).
T1 construct: expressed in transfected cells; host or cells: CHO-K1
Put plainly: Glucagon cAMP inhibition assay (Cisbio cAMP Dynamic 2 HTRF). The following applies: GCGR overexpressed CHO-K1 cells or human primary hepatocytes (not specified); glucagon at EC50. It is filed as cell-based. In short, it runs like this:
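GCGR-overexpressing CHO-K1 cells or human primary hepatocytes in HBSS with 0.1% BSA and 800 nM IBMX, pre-incubated 30 min with compound (1% DMSO final), then stimulated 30 min at room temperature with glucagon at its EC50. cAMP measured by HTRF after 60 min lysis; IC50 from non-linear regression.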
Background: In TR-FRET formats the signal depends on donor and acceptor labels being close together.

Some results are limits rather than exact numbers.

Chain of GCGR (P47871 26-477, species assumed): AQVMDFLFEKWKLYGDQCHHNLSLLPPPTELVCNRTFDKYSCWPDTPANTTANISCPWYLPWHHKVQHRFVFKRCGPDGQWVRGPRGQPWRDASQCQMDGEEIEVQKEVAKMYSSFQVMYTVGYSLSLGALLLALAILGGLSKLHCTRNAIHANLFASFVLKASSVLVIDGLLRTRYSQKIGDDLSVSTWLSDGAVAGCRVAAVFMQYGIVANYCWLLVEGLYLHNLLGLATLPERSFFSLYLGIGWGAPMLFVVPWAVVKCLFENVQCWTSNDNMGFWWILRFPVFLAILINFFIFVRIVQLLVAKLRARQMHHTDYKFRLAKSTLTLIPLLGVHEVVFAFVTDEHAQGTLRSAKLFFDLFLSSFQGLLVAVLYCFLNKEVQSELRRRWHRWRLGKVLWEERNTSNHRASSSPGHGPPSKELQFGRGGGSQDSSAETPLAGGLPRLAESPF
T1 sequence (P47871 26-477, species assumed): as above

Turning to `CCCC[C@H](Nc1ccc(C(=O)NCCC(=O)OCC)cc1)c1ccc(-c2noc(-c3ccccn3)n2)cc1` [Compound 2-37, ethyl (S)-3-(4-((1-(4-(5-(pyridin-2-yl)-1,2,4-oxadiazol-3-yl)phenyl)pentyl)amino)benzamido)propanoate], the IC50 on GCGR is 1100 nM; at glucagon receptor (GCGR) it was 89.7 nM.
With `CCCC[C@H](Nc1ccc(C(=O)NCCC(=O)O)cc1)c1ccc(-c2noc(-c3ccccn3)n2)cc1` [Compound 2-38, (S)-3-(4-((1-(4-(5-(pyridin-2-yl)-1,2,4-oxadiazol-3-yl)phenyl)pentyl)amino)benzamido)propanoic acid], the results for the IC50 at GCGR and against glucagon receptor (GCGR) were 226 nM and 686 nM, respectively.
The corresponding values for `CCCC[C@@H](Nc1ccc(C(=O)NCCC(=O)OCC)cc1)c1ccc(-c2noc(-c3ccccn3)n2)cc1` [Compound 2-39, ethyl (R)-3-(4-((1-(4-(5-(pyridin-2-yl)-1,2,4-oxadiazol-3-yl)phenyl)pentyl)amino)benzamido)propanoate] are over 30000 nM and 672 nM.
The corresponding values for `CCCC[C@@H](Nc1ccc(C(=O)NCCC(=O)O)cc1)c1ccc(-c2noc(-c3ccccn3)n2)cc1` [Compound 2-40, (R)-3-(4-((1-(4-(5-(pyridin-2-yl)-1,2,4-oxadiazol-3-yl)phenyl)pentyl)amino)benzamido)propanoic acid] are 1020 nM and 138 nM.
As for `CCOC(=O)CCNC(=O)c1ccc(N[C@@H](CC(C)C)c2ccc(-c3noc(-c4ccccc4)n3)cc2)cc1` [Compound 2-41, ethyl (S)-3-(4-((3-methyl-1-(4-(5-phenyl-1,2,4-oxadiazol-3-yl)phenyl)butyl)amino)benzamido)propanoate], the 50% inhibitory concentration (IC50) at GCGR amounted to 389 nM; against glucagon receptor (GCGR), 71.1 nM.
The corresponding values for `CCOC(=O)CCNC(=O)c1ccc(N[C@H](CC(C)C)c2ccc(-c3noc(-c4ccccc4)n3)cc2)cc1` [Compound 2-42, ethyl (R)-3-(4-((3-methyl-1-(4-(5-phenyl-1,2,4-oxadiazol-3-yl)phenyl)butyl)amino)benzamido)propanoate] are 42 nM and 248 nM.
With `CC(C)C[C@H](Nc1ccc(C(=O)NCCC(=O)O)cc1)c1ccc(-c2noc(-c3ccccc3)n2)cc1` [Compound 2-43, (S)-3-(4-((3-methyl-1-(4-(5-phenyl-1,2,4-oxadiazol-3-yl)phenyl)butyl)amino)benzamido)propanoic acid], the results for the half-inhibitory concentration (IC50) on GCGR and at glucagon receptor (GCGR) were over 30000 nM and 391 nM, respectively.
On to `CC(C)C[C@@H](Nc1ccc(C(=O)NCCC(=O)O)cc1)c1ccc(-c2noc(-c3ccccc3)n2)cc1` [Compound 2-44, (R)-3-(4-((3-methyl-1-(4-(5-phenyl-1,254-oxadiazol-3-yl)phenyl)butyl)amino)benzamido)propanoic acid], for which the IC50 on GCGR is 199 nM; against glucagon receptor (GCGR), 334 nM.
As for `CCCC[C@H](Nc1ccc(C(=O)NCCC(=O)OCC)cc1)c1ccc(-c2noc(C(F)(F)F)n2)cc1` [Compound 2-45, ethyl (S)-3-(4-((1-(4-(5-(trifluoromethyl)-1,2,4-oxadiazol-3-yl)phenyl)pentyl)amino)benzamido)propanoate], the IC50 on GCGR was over 30000 nM; against glucagon receptor (GCGR), 118 nM.
The corresponding values for `CCCC[C@@H](Nc1ccc(C(=O)NCCC(=O)OCC)cc1)c1ccc(-c2noc(C(F)(F)F)n2)cc1` [Compound 2-46, ethyl (R)-3-(4-((1-(4-(5-(trifluoromethyl)-1,2,4-oxadiazol-3-yl)phenyl)pentyl)amino)benzamido)propanoate] are over 30000 nM and 2880 nM.
For `CCCC[C@H](Nc1ccc(C(=O)NCCC(=O)O)cc1)c1ccc(-c2noc(C(F)(F)F)n2)cc1` [Compound 2-47, (S)-3-(4-((1-(4-(5-(trifluoromethyl)-1,2,4-oxadiazol-3-yl)phenyl)pentyl)amino)benzamido)propanoic acid], the IC50 at GCGR turned out to be 254 nM; on glucagon receptor (GCGR) it was 428 nM.
The corresponding values for `CCCC[C@@H](Nc1ccc(C(=O)NCCC(=O)O)cc1)c1ccc(-c2noc(C(F)(F)F)n2)cc1` [Compound 2-48, (R)-3-(4-((1-(4-(5-(trifluoromethyl)-1,2,4-oxadiazol-3-yl)phenyl)pentyl)amino)benzamido)propanoic acid] are 1180 nM and 1570 nM.
The corresponding values for `COC(=O)CCNC(=O)c1ccc(N[C@H](c2ccc(-c3noc(-c4ccccc4)n3)cc2)C(C)C)cc1` [Compound 2-49, methyl (S)-3-(4-((2-methyl-1-(4-(5-phenyl-1,2,4-oxadiazol-3-yl)phenyl)propyl)amino)benzamido)propanoate] are 285 nM and 55.8 nM.
Regarding `CCCCC(Nc1ccc(-c2nnc(-c3ccccc3)o2)cc1)c1ccc(C(=O)NCCC(=O)O)cc1` (stereo not drawn) [Compound 3-1, 3-(4-(1-((4-(5-phenyl-1,3,4-oxadiazol-2-yl)phenyl)amino)pentyl)benzamido)propanoic acid], the IC50 at GCGR turned out to be 25 nM; at glucagon receptor (GCGR), 1740 nM.
The corresponding values for `CC(C)C(Nc1ccc(-c2nnc(-c3ccccc3)o2)cc1)c1ccc(C(=O)NCCC(=O)O)cc1` (stereo not drawn) [Compound 3-2, 3-(4-(2-methyl-1-((4-(5-phenyl-1,3,4-oxadiazol-2-yl)phenyl)amino)propyl)benzamido)propanoic acid] are 17 nM and 2900 nM.
The corresponding values for `CCCCC(Nc1ccc(-c2nnc(-c3ccccc3)o2)cc1)c1ccc(C(=O)NCCC(=O)OCC)cc1` (stereo not drawn) [Compound 3-3, ethyl 3-(4-(1-((4-(5-phenyl-1,3,4-oxadiazol-2-yl)phenyl)amino)pentyl)benzamido)propanoate] are 1320 nM and 933 nM.
For `CCOC(=O)CCNC(=O)c1ccc(C(Nc2ccc(-c3nnc(-c4ccccc4)o3)cc2)C(C)C)cc1` (stereo not drawn) [Compound 3-4], the figures for the IC50 on GCGR and against glucagon receptor (GCGR) were 2790 nM and 1230 nM, respectively.
The corresponding values for `CCOC(=O)CCNC(=O)c1ccc(C(Nc2ccc(-c3nnc(-c4ccccc4)o3)cc2)C(C)CC)cc1` (stereo not drawn) [Compound 3-5, ethyl 3-(4-(2-methyl-1-((4-(5-phenyl-1,3,4-oxadiazol-2-yl)phenyl)amino)butyl)benzamido)propanoate] are 963 nM and 311 nM.
Regarding `CCC(C)C(Nc1ccc(-c2nnc(-c3ccccc3)o2)cc1)c1ccc(C(=O)NCCC(=O)O)cc1` (stereo not drawn) [Compound 3-6, 3-(4-(2-methyl-1-((4-(5-phenyl-1,3,4-oxadiazol-2-yl)phenyl)amino)butyl)benzamido)propanoic acid], the figures for the IC50 at GCGR and against glucagon receptor (GCGR) were 58 nM and 650 nM, respectively.
The corresponding values for `CCOC(=O)CCNC(=O)c1ccc(C(Nc2ccc(-c3nnc(-c4ccc(F)cc4)o3)cc2)C(C)CC)cc1` (stereo not drawn) [Compound 3-7, ethyl 3-(4-(1-((4-(5-(4-fluorophenyl)-1,3,4-oxadiazol-2-yl)phenyl)amino)-2-methylbutyl)benzamido)propanoate] are 246 nM and 159 nM.
As to `CCC(C)C(Nc1ccc(-c2nnc(-c3ccc(F)cc3)o2)cc1)c1ccc(C(=O)NCCC(=O)O)cc1` (stereo not drawn) [Compound 3-8, 3-(4-(1-((4-(5-(4-fluorophenyl)-1,3,4-oxadiazol-2-yl)phenyl)amino)-2-methylbutyl)benzamido)propanoic acid], the figures for the IC50 on GCGR and on glucagon receptor (GCGR) were 74 nM and 1030 nM, respectively.
The corresponding values for `CCOC(=O)CCNC(=O)c1ccc(C(Nc2ccc(-c3nnc(-c4ccc(F)cc4)o3)cc2)C(C)C)cc1` (stereo not drawn) [Compound 3-9, ethyl 3-(4-(1-((4-(5-(4-fluorophenyl)-1,3,4-oxadiazol-2-yl)phenyl)amino)-2-methylpropyl)benzamido)propanoate] are over 30000 nM and 442 nM.
Consider `CC(C)C(Nc1ccc(-c2nnc(-c3ccc(F)cc3)o2)cc1)c1ccc(C(=O)NCCC(=O)O)cc1` (stereo not drawn) [Compound 3-10, 3-(4-(1-((4-(5-(4-fluorophenyl)-1,3,4-oxadiazol-2-yl)phenyl)amino)-2-methylpropyl)benzamido)propanoic acid], for which the half-maximal inhibitory concentration (IC50) on GCGR was found to be 143 nM; at glucagon receptor (GCGR), 4500 nM.
The corresponding values for `CC(C)C(Nc1ccc(-c2noc(-c3ccccc3)n2)cc1)c1ccc(C(=O)NCCC(=O)O)cc1` (stereo not drawn) [Compound 3-11, 3-(4-(2-methyl-1-((4-(5-phenyl-1,2,4-oxadiazol-3-yl)phenyl)amino)propyl)benzamido)propanoic acid] are 318 nM and 717 nM.
`CCOC(=O)CCNC(=O)c1ccc([C@@H](Nc2ccc(-c3nnc(-c4ccccc4)o3)cc2)C(C)C)cc1` [Compound 3-12, (S)-ethyl 3-(4-(2-methyl-1-(4-(5-phenyl-1,3,4-oxadiazol-2-yl)phenylamino)propyl)benzamido)propanoate]: the IC50 is over 30000 nM at GCGR and 277 nM on glucagon receptor (GCGR).
As for `CCOC(=O)CCNC(=O)c1ccc([C@H](Nc2ccc(-c3nnc(-c4ccccc4)o3)cc2)C(C)C)cc1` [Compound 3-13, (R)-ethyl 3-(4-(2-methyl-1-(4-(5-phenyl-1,3,4-oxadiazol-2-yl)phenylamino)propyl)benzamido)propanoate], the IC50 is over 30000 nM on GCGR and 207 nM on glucagon receptor (GCGR).
The corresponding values for `CC(C)[C@H](Nc1ccc(-c2nnc(-c3ccccc3)o2)cc1)c1ccc(C(=O)NCCC(=O)O)cc1` [Compound 3-14, (S)-3-(4-(2-methyl-1-(4-(5-phenyl-1,3,4-oxadiazol-2-yl)phenylamino)propyl)benzamido)propanoic acid] are 957 nM and 1780 nM.
